Earlier results on one molecule are cited in publication PMC4008333 (Cancer chemotherapy and pharmacology, 2012).

Starred links: 1 amine or outer side, 2 acyl side, 3 side chain; linkers in the order of their positions; H or OH if unused. Positions of bridges follow the written chain, without caps; N, C: chain ends. Non-standard residues stand in square brackets, D forms with d. Residues, ends and D or L forms follow the SMILES beside them. Chains are numbered I, II in the order given. Actinocin(9to1) = Cc1c2oc3c(C)ccc(C(=O)[*:1])c3nc-2c(C(=O)[*:2])c(N)c1=O; NMeV = CN[C@H](C(=O)O)C(C)C; Sar = CNCC(=O)O

For this data set the following is noted: historical model; point estimate (% RSE).

Take `Cc1c2oc3c(C)ccc(C(=O)N[C@@H]4C(=O)N[C@H](C(C)C)C(=O)N5CCC[C@H]5C(=O)N(C)CC(=O)N(C)[C@@H](C(C)C)C(=O)O[C@@H]4C)c3nc-2c(C(=O)N[C@@H]2C(=O)N[C@H](C(C)C)C(=O)N3CCC[C@H]3C(=O)N(C)CC(=O)N(C)[C@@H](C(C)C)C(=O)O[C@@H]2C)c(N)c1=O` [AMD, actinomycin-D] (I: T[dV]P[Sar][NMeV] / II: T[dV]P[Sar][NMeV]; ester I:1-I:C, II:1-II:C; linker I:N-II:N via Actinocin(9to1)): the Q2 is 11.4 (58.8) L/h/70 kg, the Q3 is given as 25.2 (23.3) L/h/70 kg, the V1 is 3.56 (39.3) L/70 kg and the V2 is on record as 16.1 (80.7) L/70 kg. For the same molecule, the V3 is reported as 367 (19.7) L/70 kg.
